Experimental data from publication PMC12655351, “Synthesis and Anticancer Activity Evaluation of New 5-((5-Nitrofuran-2-yl)allylidene)-2-thioxo-4-thiazolidinones” (Pharmaceuticals, 2025).

Experiments:
AGS = test: MTT assay; type: cell-based; settings: Homo sapiens, 24 h of treatment
In short: (§1)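 Cells were exposed to compounds at 0.625–40.0 μM (seven concentrations, triplicate) for 24 h, then incubated with MTT for 2 h at 37 °C. After lysis in acidic SDS/DMF buffer (pH 4.7), absorbance was read at 570 nm.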

DLD-1 = test: MTT assay; type: cell-based; settings: Homo sapiens; DLD-1, 24 h of treatment
In short: as §1

HCC-1954 = test: MTT assay; type: cell-based; settings: Homo sapiens, HCC1954; HCC-1954, 24 h of treatment
In short: as §1

HCT-116 = test: MTT assay; type: cell-based; settings: Homo sapiens; HCT-116, 24 h of treatment
In short: as §1

HT-29 = test: MTT assay; type: cell-based; settings: Homo sapiens; HT-29, 24 h of treatment
In short: as §1

Jurkat = test: MTT assay; type: cell-based; settings: Homo sapiens, 24 h of treatment
In short: as §1

K562 = test: MTT assay; type: cell-based; settings: Homo sapiens; K562, 24 h of treatment
In short: as §1

MCF-7 = test: MTT assay; type: cell-based; settings: Homo sapiens, MCF7; MCF-7, 24 h of treatment
In short: as §1

MDA-MB-231 = test: MTT assay; type: cell-based; settings: Homo sapiens; MDA-MB-231, 24 h of treatment
In short: as §1

RPMI 8866 = test: MTT assay; type: cell-based; settings: Homo sapiens; RPMI 8866, 24 h of treatment
In short: as §1

SH SY5Y = test: MTT assay; type: cell-based; settings: Homo sapiens, 24 h of treatment
In short: as §1

RPMI-8226 = settings: RPMI-8226, 48 h
SK-OV-3 = settings: SK-OV-3, 48 h
UO-31 = settings: UO-31, 48 h
DU-145 = settings: DU-145, 48 h
HS 578T = settings: 48 h
Melanoma = Melanoma subpanel
Renal Cancer [1] = settings: Renal Cancer subpanel
Breast cancer = Breast cancer subpanel
[2] = tested on: panel of 60 cancer cell lines; settings: for Positive cytostatic effect (ratio of cell lines with GP from 0 to 50 to total number) / Mean growth / Range of growth: 10 μM, 48 h; for Mean growth / Range of growth: one dose; for MG_MID TGI: full panel (last line of Table S2)
SF-268 = test: cells; settings: Homo sapiens, SF-268, 48 h; for CC50: read-out: LC50, SF-268, 48 h
OVCAR-3 = test: cells; settings: Homo sapiens, OVCAR-3, 48 h
OVCAR-4 = test: cells; settings: Homo sapiens, OVCAR-4, 48 h; for CC50: read-out: LC50, OVCAR-4, 48 h
NCI/ADR-RES = test: cells; settings: Homo sapiens, 48 h; for CC50: read-out: LC50, NCI/ADR-RES, 48 h
786-0 = test: cells; settings: Homo sapiens, 786-0, 48 h
PC-3 = test: cells; settings: Homo sapiens, PC-3, 48 h
Renal Cancer [3] = test: cells; settings: Homo sapiens; for GI50: read-out: MG_MID GI50; for CC50: read-out: MG_MID LC50
HL-60(TB) = test: NCI-60 SRB screen; settings: for TGI / GI50: HL-60(TB), 48 h; for GI50 / CC50: Homo sapiens, HL-60, 48 h; for CC50: read-out: LC50, HL-60(TB), 48 h
A549/ATCC = test: NCI-60 SRB screen; settings: for TGI: 48 h; for GI50: Homo sapiens, A549, 48 h
HOP-62 = test: NCI-60 SRB screen; settings: HOP-62, 48 h; for GI50: Homo sapiens
OVCAR-5 = test: NCI-60 SRB screen; settings: OVCAR-5, 48 h; for GI50: Homo sapiens
MDA-MB-468 = test: NCI-60 SRB screen; settings: MDA-MB-468, 48 h; for GI50 / CC50: Homo sapiens; for CC50: read-out: LC50, MDA-MB-468, 48 h

O=C(O)C(c1ccccc1)N1C(=O)/C(=C/C=C/c2ccc([N+](=O)[O-])o2)SC1=S (stereo not drawn) [9b, 2-((Z)-5-((E)-3-(5-Nitrofuran-2-yl)allylidene)-4-oxo-2-thioxothiazolidin-3-yl)-2-phenylacetic acid]
IC50 (AGS): 12.9 µM
IC50 (DLD-1): 12.3 µM
IC50 (HCC-1954): 20.6 µM
IC50 (HCT-116): 11.7 µM
IC50 (HT-29): 20 µM
IC50 (Jurkat): 2.51 µM
IC50 (K562): 37.6 µM
IC50 (MCF-7): 14.1 µM
IC50 (MDA-MB-231): 36.7 µM
IC50 (RPMI 8866): 5.54 µM
IC50 (SH SY5Y): 20.1 µM
TGI (RPMI-8226): 12.7 µM
TGI (SK-OV-3): 29.9 µM
TGI (UO-31): 23.4 µM
TGI (DU-145): 23.7 µM
TGI (HS 578T): 35.0 µM
MG_MID TGI (Melanoma): 20.0 µM
MG_MID TGI (Renal Cancer [1]): 22.1 µM
MG_MID TGI (Breast cancer): 22.2 µM
Positive cytostatic effect (ratio of cell lines with GP from 0 to 50 to total number) [2]: 28/55
Mean growth [2]: 26.29%
Range of growth [2]: -88.21 to 175.37%
MG_MID TGI [2]: 24.1 µM
GI50 (SF-268): 10.8 µM
CC50 (SF-268): 52.2 µM
GI50 (OVCAR-3): 9.26 µM
GI50 (OVCAR-4): 13.9 µM
CC50 (OVCAR-4): 56.1 µM
GI50 (NCI/ADR-RES): 13.5 µM
CC50 (NCI/ADR-RES): 84.9 µM
GI50 (786-0): 3.67 µM
GI50 (PC-3): 13.5 µM
GI50 (Renal Cancer [3]): 9.53 µM
CC50 (Renal Cancer [3]): 50.7 µM
TGI (HL-60(TB)): 42.2 µM
GI50 (HL-60(TB)): 14.8 µM
CC50 (HL-60(TB)): > 100 µM
TGI (A549/ATCC): 47.0 µM
GI50 (A549/ATCC): 16.8 µM
TGI (HOP-62): 44.5 µM
GI50 (HOP-62): 13.1 µM
GI50 (OVCAR-5): 12.7 µM
TGI (OVCAR-5): 25.8 µM
GI50 (MDA-MB-468): 2.74 µM
CC50 (MDA-MB-468): 45.6 µM
TGI (MDA-MB-468): 10.4 µM

O=C(O)CCN1C(=O)/C(=C/C=C/c2ccc([N+](=O)[O-])o2)SC1=S [12b, 3-((Z)-5-((E)-3-(5-Nitrofuran-2-yl)allylidene)-4-oxo-2-thioxothiazolidin-3-yl)propanoic acid]
IC50 (AGS): 3.65 µM
IC50 (DLD-1): 3.31 µM
IC50 (HCC-1954): 4.86 µM
IC50 (HCT-116): 3.68 µM
IC50 (HT-29): 8.56 µM
IC50 (Jurkat): 1.77 µM
IC50 (K562): 7.15 µM
IC50 (MCF-7): 3.01 µM
IC50 (MDA-MB-231): 12.9 µM
IC50 (RPMI 8866): 7.78 µM
IC50 (SH SY5Y): 13.1 µM
TGI (RPMI-8226): 4.48 µM
TGI (SK-OV-3): 16.1 µM
TGI (UO-31): 2.25 µM
TGI (DU-145): 10.6 µM
TGI (HS 578T): 7.93 µM
MG_MID TGI (Melanoma): 2.60 µM
MG_MID TGI (Renal Cancer [1]): 6.01 µM
MG_MID TGI (Breast cancer): 3.64 µM
Positive cytostatic effect (ratio of cell lines with GP from 0 to 50 to total number) [2]: 4/55
Mean growth [2]: -62.05%
MG_MID TGI [2]: 4.69 µM
GI50 (SF-268): 1.44 µM
CC50 (SF-268): 7.02 µM
GI50 (OVCAR-3): 1.36 µM
GI50 (OVCAR-4): 1.79 µM
CC50 (OVCAR-4): 8.07 µM
GI50 (NCI/ADR-RES): 1.21 µM
CC50 (NCI/ADR-RES): 24.8 µM
GI50 (786-0): 1.38 µM
GI50 (PC-3): 2.48 µM
GI50 (Renal Cancer [3]): 3.05 µM
CC50 (Renal Cancer [3]): 11.9 µM
TGI (HL-60(TB)): 3.30 µM
GI50 (HL-60(TB)): 1.28 µM
TGI (A549/ATCC): 12.4 µM
GI50 (A549/ATCC): 3.21 µM
TGI (HOP-62): 3.57 µM
GI50 (HOP-62): 1.61 µM
GI50 (OVCAR-5): 1.99 µM
TGI (OVCAR-5): 3.70 µM
GI50 (MDA-MB-468): 0.66 µM
CC50 (MDA-MB-468): 5.71 µM
TGI (MDA-MB-468): 2.14 µM

CCCCC(C(=O)O)N1C(=O)/C(=C/C=C/c2ccc([N+](=O)[O-])o2)SC1=S (stereo not drawn) [6b, 2-((Z)-5-((E)-3-(5-nitrofuran-2-yl)allylidene)-4-oxo-2-thioxothiazolidin-3-yl)hexanoic acid]
IC50 (AGS): 3.99 µM
IC50 (DLD-1): 4.58 µM
IC50 (HCC-1954): 4.18 µM
IC50 (HCT-116): 17.6 µM
IC50 (HT-29): 8.01 µM
IC50 (Jurkat): 13.9 µM
IC50 (K562): 36.2 µM
IC50 (MCF-7): 6.39 µM
IC50 (MDA-MB-231): 10.3 µM
IC50 (RPMI 8866): 15.2 µM
IC50 (SH SY5Y): 8.39 µM
TGI (RPMI-8226): 6.09 µM
TGI (SK-OV-3): 19.4 µM
TGI (UO-31): 3.29 µM
TGI (DU-145): 10.2 µM
TGI (HS 578T): 27.4 µM
MG_MID TGI (Melanoma): 3.59 µM
MG_MID TGI (Renal Cancer [1]): 5.37 µM
MG_MID TGI (Breast cancer): 7.71 µM
Positive cytostatic effect (ratio of cell lines with GP from 0 to 50 to total number) [2]: 6/55
Range of growth [2]: -99.30 to 46.65%
MG_MID TGI [2]: 6.27 µM
GI50 (SF-268): 2.15 µM
CC50 (SF-268): 16.8 µM
GI50 (OVCAR-3): 2.23 µM
GI50 (OVCAR-4): 6.12 µM
CC50 (OVCAR-4): 44.5 µM
GI50 (NCI/ADR-RES): 2.24 µM
CC50 (NCI/ADR-RES): 29.3 µM
GI50 (786-0): 3.11 µM
GI50 (PC-3): 3.05 µM
GI50 (Renal Cancer [3]): 2.24 µM
CC50 (Renal Cancer [3]): 17.7 µM
TGI (HL-60(TB)): 10.1 µM
GI50 (HL-60(TB)): 2.68 µM
CC50 (HL-60(TB)): > 100 µM
TGI (A549/ATCC): 5.86 µM
GI50 (A549/ATCC): 2.33 µM
TGI (HOP-62): 5.20 µM
GI50 (HOP-62): 2.25 µM
GI50 (OVCAR-5): 2.08 µM
TGI (OVCAR-5): 4.62 µM
GI50 (MDA-MB-468): 1.63 µM
CC50 (MDA-MB-468): 6.09 µM
TGI (MDA-MB-468): 3.15 µM
